In patent US20260048060A1, “POLYCYCLIC THYROID HORMONE b RECEPTOR AGONIST AND USE THEREOF” (CASCADE PHARMACEUTICALS, INC., priority 2022, published 2026):

The molecules below were run against T1, THRβ (Homo sapiens, UniProt P10828) (assay: Reporter gene (GAL4-THRβ-LBD / Dual-Glo luciferase) agonist activity assay in HEK293T cells). Conditions: ratio of reporter gene EC50 values THRα/THRβ.
T1 construct: expressed in transfected cells; host or cells: HEK293T
T1 sequence (P10828 217-461): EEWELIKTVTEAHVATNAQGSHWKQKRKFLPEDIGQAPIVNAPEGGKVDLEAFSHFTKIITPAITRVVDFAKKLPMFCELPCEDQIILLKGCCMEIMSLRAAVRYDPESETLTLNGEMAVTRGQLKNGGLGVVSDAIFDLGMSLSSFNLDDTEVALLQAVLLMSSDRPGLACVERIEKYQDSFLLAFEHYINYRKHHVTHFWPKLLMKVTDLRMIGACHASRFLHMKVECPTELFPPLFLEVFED
Type: cell-based
Source text: Experimental Example 1: Detection of THRα and THRβ Agonist Activities of Compounds Based on Reporter Gene Activity Assay Method
1.1 Construction and Preparation of Plasmids pGAL4-THR-LBD and pG5-Luc
The pGAL4-THRα-LBD and pGAL4-THRβ-LBD plasmids used in the reporter gene assay system were constructed by a conventional molecular cloning method comprising the following main steps: the cDNA sequences of THRα (NM_003250) and THRβ (NM_000461) corresponding to the amino acid sequences of THRα (163-407AA) and THRβ (217-461AA) were inserted into the BamHI and NotI enzyme digestion sites of the pGAL4 vector by the PCR technique respectively to obtain the pGAL4-THRα-LBD and pGAL4-THRβ-LBD plasmids; the pG5-Luc (#E249A) and pRL-TK (#E2241) plasmids were purchased from Promega; the plasmids were transfected into the E. coli DH5α by the CaCl2 method, and after further culture and amplification, the plasmids were purified by Plasmid Extraction Kits (TIANGEN, #D107) to obtain the corresponding plasmid DNAs.
1.2 Co-Transfection of Plasmids into HEK293T Cells and Treatment with Compounds
The HEK293T cells were inoculated into a 96-well plate at a density of 1×10^4/well the day before plasmid transfection. Cell transfection was conducted according to the instructions of the transfection reagent FuGENE® HD (Promega, #E2311). The main steps were as follows: taking one well as an example here, the plasmids pGAL4-THRα-LBD or pGAL4-THRβ-LBD, pG5-Luc, and pRL-TK were added in the proportions of 20 ng, 50 ng, and 5 ng to 10 μL of Opti-MEM™ I medium (Gibco, #11058021) and mixed well; subsequently, 0.25 uL of FuGENE® HD was added, mixed well, and then left at room temperature for 5 min; afterwards, 10 μL of the mixture was added to the cell wells containing 100 μL of culture medium. After cell co-transfection for 6 h, the compound was diluted in a 3-fold gradient with dimethyl sulfoxide at the highest concentration of 1 uM. The compound was added to the cell culture medium at a total of 10 concentrations for treatment for 24 h. There were a total of two duplicate wells for each concentration. Triiodothyronine (T3) was used as the positive control.
1.3 Dual-Glo Luciferase Assay
After the cells were treated with the compound for 24 h, the cells were assayed according to the instructions of Dual-Glo® Luciferase Assay System (Promega, #E2940). The main steps were as follows: 50 μL of culture medium was aspirated from each well and discarded, and then 50 μL of Dual-Glo® Luciferase reagent was added and oscillated at room temperature for 10 min; 80 μL of lysis reaction solution was measured into a white opaque optiPlate-96-well plate, and the luminescence signal value (Firefly-Luc) of the Firefly luciferase was detected using an MD i3x multi-mode microplate reader; 40 μL of Dual-Glo® Stop & Glo® reagent was then added, and oscillated at room temperature for 10 min; the luminescence signal value (Renilla-Luc) of the Renilla luciferase was then detected using an MD i3x multi-mode microplate reader. The Firefly-Luc/Renilla-Luc ratio was used as the activation activity of the compound against THR, and the ratio in the solvent DMSO group was used for normalization; the dose-response curve was fitted with four parameters using the GraphPad Prism6.0 software, and the EC50 value was calculated.
`CNC(=O)c1ccccc1OCc1c(C)cc(-n2ncc(=O)[nH]c2=O)cc1Cl` [Compound 61] was tested, and the “Selectivity (THRα/THRβ)” value was “† (†: 5 ≥ THRα/β;)”. In the case of `NC(=O)c1cc(F)ccc1OCc1c(Cl)cc(-n2ncc(=O)[nH]c2=O)cc1Cl` [Compound 37], the “Selectivity (THRα/THRβ)” value is reported as “† (†: 5 ≥ THRα/β;)”. With `CCNC(=O)c1ccccc1OCc1c(Cl)cc(-n2ncc(=O)[nH]c2=O)cc1Cl` [Compound 43] the “Selectivity (THRα/THRβ)” value was “† (†: 5 ≥ THRα/β;)”. In the case of `NC(=O)c1ccccc1OCc1c(Br)cc(-n2nc(C(F)F)c(=O)[nH]c2=O)cc1Br` [Compound 57], the “Selectivity (THRα/THRβ)” value is reported as “† (†: 5 ≥ THRα/β;)”. For `CNC(=O)c1ccc(OCc2c(Cl)cc(-n3ncc(=O)[nH]c3=O)cc2Cl)cc1` [Compound 76], the “Selectivity (THRα/THRβ)” value was “† (†: 5 ≥ THRα/β;)”. In the case of `[2H]C([2H])(Oc1ccccc1C(=O)NC)c1c(Cl)cc(-n2nc(C(F)F)c(=O)[nH]c2=O)cc1Cl` [Compound 103], the “Selectivity (THRα/THRβ)” value is reported as “† (†: 5 ≥ THRα/β;)”. With `CNC(=O)c1sccc1OCc1c(Br)cc(-n2nc(C(F)F)c(=O)[nH]c2=O)cc1Br` [Compound 90] the “Selectivity (THRα/THRβ)” value was “††† (†††: 20 ≥ THRα/β > 10;)”. For `CNC(=O)c1cscc1OCc1c(Br)cc(-n2nc(C(F)F)c(=O)[nH]c2=O)cc1Br` [Compound 91], the “Selectivity (THRα/THRβ)” value was “††† (†††: 20 ≥ THRα/β > 10;)”. `CNC(=O)c1cc(C)ccc1OCc1c(Br)cc(-n2nc(C(F)F)c(=O)[nH]c2=O)cc1Br` [Compound 89] was tested, and the “Selectivity (THRα/THRβ)” value was “† (†: 5 ≥ THRα/β;)”. `NC(=O)c1cc(C2CCCCC2)ccc1OCc1c(Cl)cc(-n2ncc(=O)[nH]c2=O)cc1Cl` [Compound 100] was tested, and the “Selectivity (THRα/THRβ)” value was “†††† (††††: 100 ≥ THRα/β > 20)”. With `CNC(=O)c1ccccc1OCc1c(Cl)cc(-n2nc(CF)c(=O)[nH]c2=O)cc1Cl` [Compound 93] the “Selectivity (THRα/THRβ)” value was “† (†: 5 ≥ THRα/β;)”. For `CNC(=O)c1cc(C)ccc1OCc1c(Br)cc(-n2ncc(=O)[nH]c2=O)cc1Br` [Compound 85], the “Selectivity (THRα/THRβ)” value was “†††† (††††: 100 ≥ THRα/β > 20)”. With `NC(=O)c1cc(-n2cccc2)ccc1OCc1c(Cl)cc(-n2ncc(=O)[nH]c2=O)cc1Cl` [Compound 70] the “Selectivity (THRα/THRβ)” value was “†† (††: 10 ≥ THRα/β > 5;)”. In the case of `CNC(=O)c1sccc1OCc1c(Cl)cc(-n2nc(C(F)F)c(=O)[nH]c2=O)cc1Cl` [Compound 63], the “Selectivity (THRα/THRβ)” value is reported as “† (†: 5 ≥ THRα/β;)”. With `CNC(=O)c1cscc1OCc1c(Cl)cc(-n2ncc(=O)[nH]c2=O)cc1Cl` [Compound 46] the “Selectivity (THRα/THRβ)” value was “† (†: 5 ≥ THRα/β;)”. For `Cc1ccc(OCc2c(Cl)cc(-n3ncc(=O)[nH]c3=O)cc2Cl)c(C(N)=O)c1` [Compound 68], the “Selectivity (THRα/THRβ)” value was “† (†: 5 ≥ THRα/β;)”. With `Cc1ccc(OCc2c(Cl)cc(-n3nc(C(F)F)c(=O)[nH]c3=O)cc2Cl)c(C(N)=O)c1` [Compound 86] the “Selectivity (THRα/THRβ)” value was “†† (††: 10 ≥ THRα/β > 5;)”. For `CNC(=O)c1ccccc1OCc1c(Cl)cc(-n2nc(C)c(=O)[nH]c2=O)cc1Cl` [Compound 51], the “Selectivity (THRα/THRβ)” value was “† (†: 5 ≥ THRα/β;)”. `CNC(=O)c1cc(C)ccc1OCc1c(Cl)cc(-n2ncc(=O)[nH]c2=O)cc1Cl` [Compound 84] was tested, and the “Selectivity (THRα/THRβ)” value was “† (†: 5 ≥ THRα/β;)”. In the case of `NC(=O)c1cc(C2CC2)ccc1OCc1c(Cl)cc(-n2ncc(=O)[nH]c2=O)cc1Cl` [Compound 82], the “Selectivity (THRα/THRβ)” value is reported as “†† (††: 10 ≥ THRα/β > 5;)”. In the case of `[2H]C([2H])([2H])NC(=O)c1ccccc1OCc1c(Cl)cc(-n2nc(C(F)F)c(=O)[nH]c2=O)cc1Cl` [Compound 104], the “Selectivity (THRα/THRβ)” value is reported as “†† (††: 10 ≥ THRα/β > 5;)”. In the case of `CNC(=O)c1cc(C)ccc1OCc1c(Cl)cc(-n2nc(C(F)F)c(=O)[nH]c2=O)cc1Cl` [Compound 88], the “Selectivity (THRα/THRβ)” value is reported as “† (†: 5 ≥ THRα/β;)”. For `NC(=O)c1cc(C2=CCCCC2)ccc1OCc1c(Cl)cc(-n2ncc(=O)[nH]c2=O)cc1Cl` [Compound 99], the “Selectivity (THRα/THRβ)” value was “†††† (††††: 100 ≥ THRα/β > 20)”. With `NC(=O)c1cc(C2CCCC2)ccc1OCc1c(Cl)cc(-n2ncc(=O)[nH]c2=O)cc1Cl` [Compound 102] the “Selectivity (THRα/THRβ)” value was “†† (††: 10 ≥ THRα/β > 5;)”. `CNC(=O)c1ccccc1OCc1c(Cl)cc(-n2nc(C(F)F)c(=O)[nH]c2=O)cc1Br` [Compound 105] was tested, and the “Selectivity (THRα/THRβ)” value was “† (†: 5 ≥ THRα/β;)”. With `NC(=O)c1cc(Cl)ccc1OCc1c(Cl)cc(-n2ncc(=O)[nH]c2=O)cc1Cl` [Compound 32] the “Selectivity (THRα/THRβ)” value was “† (†: 5 ≥ THRα/β;)”. `CNC(=O)c1ccccc1OCc1c(Cl)cc(-c2nn(C(F)F)c(=O)[nH]c2=O)cc1Cl` [Compound 60] was tested, and the “Selectivity (THRα/THRβ)” value was “† (†: 5 ≥ THRα/β;)”. `CNC(=O)c1ccccc1OCc1c(Cl)cc(-n2nc(C(F)(F)F)c(=O)[nH]c2=O)cc1Cl` [Compound 52] was tested, and the “Selectivity (THRα/THRβ)” value was “† (†: 5 ≥ THRα/β;)”. `CNC(=O)c1ccccc1OCc1c(Cl)cc(-c2nn(C)c(=O)[nH]c2=O)cc1Cl` [Compound 59] was tested, and the “Selectivity (THRα/THRβ)” value was “† (†: 5 ≥ THRα/β;)”. In the case of `NC(=O)c1cc(C2=CCCC2)ccc1OCc1c(Cl)cc(-n2ncc(=O)[nH]c2=O)cc1Cl` [Compound 101], the “Selectivity (THRα/THRβ)” value is reported as “† (†: 5 ≥ THRα/β;)”. With `Cc1ccc(OCc2c(Br)cc(-n3nc(C(F)F)c(=O)[nH]c3=O)cc2Br)c(C(N)=O)c1` [Compound 87] the “Selectivity (THRα/THRβ)” value was “† (†: 5 ≥ THRα/β;)”. In the case of `Cc1ccc(OCc2c(Br)cc(-n3ncc(=O)[nH]c3=O)cc2Br)c(C(N)=O)c1` [Compound 83], the “Selectivity (THRα/THRβ)” value is reported as “†††† (††††: 100 ≥ THRα/β > 20)”. With `CNC(=O)c1sccc1OCc1c(Cl)cc(-n2ncc(=O)[nH]c2=O)cc1Cl` [Compound 47] the “Selectivity (THRα/THRβ)” value was “† (†: 5 ≥ THRα/β;)”. For `CNC(=O)c1ccccc1OCc1c(Br)cc(-n2ncc(=O)[nH]c2=O)cc1Br` [Compound 39], the “Selectivity (THRα/THRβ)” value was “† (†: 5 ≥ THRα/β;)”. In the case of `CNC(=O)c1cscc1OCc1c(Cl)cc(-n2nc(C(F)F)c(=O)[nH]c2=O)cc1Cl` [Compound 62], the “Selectivity (THRα/THRβ)” value is reported as “†† (††: 10 ≥ THRα/β > 5;)”. In the case of `CNC(=O)c1ccccc1OCc1c(Br)cc(-n2nc(C(F)F)c(=O)[nH]c2=O)cc1Br` [Compound 56], the “Selectivity (THRα/THRβ)” value is reported as “†† (††: 10 ≥ THRα/β > 5;)”. For `NC(=O)c1cc(Br)ccc1OCc1c(Cl)cc(-n2ncc(=O)[nH]c2=O)cc1Cl` [Compound 64], the “Selectivity (THRα/THRβ)” value was “† (†: 5 ≥ THRα/β;)”.
